Measurements published in patent publication US7186722B2, “2-heteroaryl-3,4-dihydro-2h-pyrrole derivatives and the use thereof as pesticides” (Bayer Cropscience AG, priority 2001, dated 2007).

Tests used:
Assay type in all cases: in vivo
[1] = test system: greenhouse red spider mite (Tetranychus urticae); assay: Tetranychus Test (OP-resistent/dip treatment); settings: 500 ppm, bean plants dipped, OP-resistent
Description: Tetranychus Test (OP-Resistent/Dip Treatment)
(§1) • Solvent: 30 parts by weight of dimethylformamide • Emulsifier: 1 part by weight of alkylaryl polyglycol ether
(§2) To produce a suitable preparation of active compound, 1 part by weight of active compound is mixed with the stated amounts of solvent and emulsifier, and the concentrate is diluted with emulsifier-containing water to the desired concentration.
Bean plants (Phaseolus vulgaris) which are heavily infested by all stages of the greenhouse red spider mite (Tetranychus urticae) are dipped into a preparation of active compound of the desired concentration.
After the desired period of time, the effect in % is determined. 100% means that all spider mites have been killed; 0% means that none of the spider mites have been killed.

[2] = test system: peach aphid (Myzus persicae); assay: Myzus Test; settings: 1000 ppm, cabbage leaves dipped
Description: • Solvent: 7 parts by weight of dimethylformamide • Emulsifier: 1 part by weight of alkylaryl polyglycol ether
as §2
Cabbage leaves (Brassica oleracea) which are heavily infested by the peach aphid (Myzus persicae) are treated by being dipped into the preparation of active compound of the desired concentration.
After the desired period of time, the kill in % is determined. 100% means that all aphids have been killed; 0% means that none of the aphids have been killed.

[3] = test system: caterpillars of the diamond back moth (Plutella xylostella); assay: Plutella Test; settings: 8 ppm, cabbage leaves dipped
Description: as §1, §2
Cabbage leaves (Brassica oleracea) are treated by being dipped into the preparation of active compound of the desired concentration and are populated with caterpillars of the diamond back moth (Plutella xylostella) while the leaves are still moist.
After the desired period of time, the kill in % is determined. 100% means that all caterpillars have been killed; 0% means that none of the caterpillars have been killed.

## Fc1cccc(F)c1C1=NC(c2cc3sc(-c4ccc(OC(F)(F)F)cc4)cc3s2)CC1 (stereo not drawn) [drawing 97]
[1]
  Kill rate in % after 7 d: 80%

## Fc1cccc(F)c1C1=NC(c2cc3ccccc3s2)CC1 (stereo not drawn) [drawing 86]
[2]
  Kill rate in % after 6 d: 95%

## Fc1cccc(F)c1C1=NC(c2ccc(-c3ccc(OC(F)(F)F)cc3)s2)CC1 (stereo not drawn) [drawing 90]
[3]
  Kill rate in % after 6 d: 90%
